{
  "source": "patent EP0430883A2",
  "about": "“Anthelmintical compounds” (CIBA-GEIGY AG, priority 1989, dated 1991)",
  "key": {"[1]": {"tested_on": "Nematoden wie Haemonchus contortus und Trichostrongylus colubriformis", "experiment": "Test on sheep infected with nematodes (worm count at necropsy)", "assay_type": "in vivo, Schafe", "settings": "single dose of 20 mg Wirksubstanz pro kg Körpergewicht, suspension by stomach tube or rumen injection, worms left in the gut counted 7-10 days after treatment vs untreated infected controls", "from_the_text": "3.1. Versuch an mit Nematoden wie Haemonchus contortus und Trichostrongylus colubriformis infizierten Schafen\nDer Wirkstoff wird in Form einer Suspension mit einer Magensonde oder durch Pansen-Injektion Schafen verabreicht, die vorher mit Nematoden wie Haemonchus contortus und Trichostrongylus colubriformis künstlich infiziert wurden. Pro Versuch resp. pro Dosis werden 1 bis 3 Tiere verwendet. Jedes Schaf wird mit nur einer einzigen Dosis behandelt.\nEine erste Evaluierung erfolgt dadurch, dass die Anzahl der vor und nach der Behandlung im Kot der Schafe ausgeschiedenen Wurmeier verglichen wird.\nSieben bis zehn Tage nach der Behandlung werden die Schafe getötet und seziert. Die Auswertung erfolgt durch Auszählung der nach der Behandlung im Darm zurückbleibenden Würmer. Gleichzeitig und gleichartig infizierte aber unbehandelte Schafe dienen als Kontrolle resp. Vergleich.\nIn diesem Test wird mit Verbindungen der Formeln I und la eine starke Reduzierung des Nematodenbefalls erzielt. So wird beispielsweise beim Einsatz von 20 mg Wirksubstanz pro kg Körpergewicht mit den nachfolgenden Verbindungen eine Reduzierung des Nematodenbefalls von ca. 90 % bewirkt: 1.1, 5.1 und 5.2. Dieses Ergebnis wird bei einzelnen Verbindungen auch noch mit weiter herabgesetzter Dosis, beispielsweise mit 10 mg Wirksubstanz pro kg Körpergewicht oder noch geringeren Mengen an Wirksubstanz, erreicht."}, "[2]": {"tested_on": "Cestoden wie Moniezia benedeni", "experiment": "Test on sheep infected with cestodes (worm count at necropsy)", "assay_type": "in vivo, Schafe", "settings": "single dose of less than 20 mg/kg Körpergewicht, suspension by stomach tube or rumen injection, worms left in the gut counted 7-10 days after treatment vs untreated infected controls", "from_the_text": "3.2. Versuch an mit Cestoden wie Moniezia benedeni infizierten Schafen\nDer Wirkstoff wird in Form einer Suspension mit einer Magensonde oder durch Pansen-Injektion Schafen verabreicht, die vorher mit Cestoden wie Moniezia benedeni artifiziell infiziert wurden. Pro Versuch resp. pro Dosis werden 3 Tiere verwendet. Jedes Schaf wird mit nur einer einzigen Dosis behandelt.\nSieben bis zehn Tage nach der Behandlung werden die Schafe getötet und seziert. Die Auswertung erfolgt durch Auszählung der nach der Behandlung im Darm zurückbleibenden Würmer. Gleichzeitig und gleichartig infizierte aber unbehandelte Schafe dienen als Kontrolle resp. Vergleich. In diesem Versuch bewirken Wirkstoffe aus den Tabellen, wie beispielsweise die Verbindungen Nr. 1.1, 5.1 und 5.2. bei Dosen von weniger als 20 mg/kg Körpergewicht eine ca. 90%ige Reduktion des Cestodenbefalls."}},
  "data": [
    {"compound": "Cn1c[n+](C)c(=O)c(C(=O)Nc2ccc(Oc3nc4ccc(OC(F)(F)F)cc4s3)cc2)c1[O-]", "note": "[Verbindung 1.1, 1,3-Dimethyl-5-[4-(6-trifluormethoxy-benzthiazol-2-yloxy)-phenylcarbamoyl]-4(6)-oxo-6-(4)-oxido-(1H,5H)-pyrimidiniumbetain]", "values": [
      {"measurement": "Reduzierung des Nematodenbefalls", "setting": "[1]", "value": "ca. 90%"},
      {"measurement": "Reduktion des Cestodenbefalls", "setting": "[2]", "value": "ca. 90%"}
    ]},
    {"compound": "CN1CN(C)C(=O)C(C(=O)Nc2ccc(Oc3nc4ccc(OC(F)(F)F)cc4s3)cc2)C1=O", "note": "[Verbindung 5.1, 1,3-Dimethyl-5-[4-(6-trifluormethoxy-benzthiazol-2-yloxy)-phenylcarbamoyl]-4,6-(1 H,3H,5H)-pyrimidindion]", "values": [
      {"measurement": "Reduzierung des Nematodenbefalls", "setting": "[1]", "value": "ca. 90%"},
      {"measurement": "Reduktion des Cestodenbefalls", "setting": "[2]", "value": "ca. 90%"}
    ]},
    {"compound": "1,3-Dimethyl-5-[4-(5-oder 7-Chlor-6-fluor-benzthiazol-2-yloxy)-phenylcarbamoyl]-4,6-(1 H,3H,5H)-pyrimidindion [Verbindung 5.2]", "values": [
      {"measurement": "Reduzierung des Nematodenbefalls", "setting": "[1]", "value": "ca. 90%"},
      {"measurement": "Reduktion des Cestodenbefalls", "setting": "[2]", "value": "ca. 90%"}
    ]}
  ]
}
